Earlier results in patent publication US20090197946A1, “COMPOSITION AND METHOD FOR TREATMENT OF INFLAMATION AND INFECTIONS OF THE GENITALIA, CONTRACEPTIVE AND THE PROPHYLAXIS OF SEXUALLY TRANSMITTED DISEASES” (priority 2008, published 2009).

What was measured:
vaginal epithelium = settings: topical, African commercial sex workers
[1] = in vivo

Compound	effect of frequent use on the vaginal epithelium (vaginal epithelium)	susceptibility to the HIV infection (vaginal epithelium; frequent use)	known potential side effects [1]
nonoxynol 9	damaged the vaginal epithelium	increased their susceptibility to the HIV infection	
CC(C)OC(=O)OCOP(=O)(CO[C@H](C)Cn1cnc2c(N)ncnc21)OCOC(=O)OC(C)C [Viread, Tenofovir]			nausea, diarrhea, vomiting and flatulence
